Data set [1] in a line: Food effect study (FES), 150 mg single dose fed vs fasted, pharmacokinetics in healthy subjects, plasma. The conditions noted are these: for Cmax / AUC(0-t): po, 150 mg, FES 150 mg single oral dose, geometric mean (CV%); for AUC(0-t): read-out: AUC(0-24). The format is in vivo, human. On the procedure: This was a single-centre, double-blind, randomised, placebo-controlled single ascending dose (SAD) and multiple ascending dose (MAD) study of anle138b in doses of up to 300 mg per day in healthy subjects. In addition, the effect of food (FES) on the PK of anle138b in healthy subjects was examined using single doses of 150 mg. Participants were recruited from Quotient Sciences (Nottingham, UK) volunteer database.
This dose was administered either i) after a standard FDA-approved high-fat breakfast or ii) in the fasted state i.e., fasted from all food and drink (except water) for a minimum of 8 h prior to dosing. In total, one cohort of 12 subjects was randomised in a 1:1 ratio to 2 treatment sequences (fed→fasted) or (fasted→fed). A minimum washout of at least 5 half-lives of anle138b between each dose was assured.
Secondary outcome measures were the oral PK of single (SAD) and multiple (MAD) ascending doses of anle138b in the fasted state as well as the effect of co-administration with food on the PK of anle138b. To this end PK blood samples were taken at day 1 (and for MAD day 7) pre-dose and at 0·5, 1, 1·5, 2, 3, 4, 6, 8, 10, 12, 16 and 20 h post-dose, at days 2 to 6 pre-dose only (MAD) and 24, 30, 36 and 48 h post final dose. Analysis of anle138b in plasma was done at Aptuit, an Evotec company, in Verona, Italy. Time point of last quantifiable data was seen to increase with an increase in dose as follows: SAD: from the 50mg dose (subjects ranged between 8-24h) to the 300mg dose (subjects ranged between 36-48h). MAD: from the 100mg dose (subjects ranged between 8-36h) to the 300mg dose (subjects ranged between 20-48h). In FES, subjects ranged between 24-48h.
The study was exploratory and no formal sample size calculation was made. Based on experience from previous studies of similar design, eight subjects per cohort were enrolled for parts 1 (SAD) and 2 (MAD) and a total of twelve subjects for part 3 (FES). Populations and analysis sets were determined for safety and PK data after database lock using the criteria defined in the reporting and analysis plan. The safety population and safety analysis set for SAD and MAD were defined after database lock but prior to study unblinding. Statistical analysis and production of summary tables, figures and listings for all safety data (AEs, vital signs, ECGs and safety laboratory assessments) including changes from baseline as required in this study were performed using the statistical package SAS (v9·4). Additional statistics was provided for PK-related data including coefficient of variation (CV%), geometric mean, geometric CV%, and the number n of subjects that were included in the natural logarithmic transformation). In SAD and MAD, dose proportionality was assessed. Formal statistical analysis was performed on the log-transformed PK parameters AUC(0-last), AUC(0-inf), and Cmax for SAD (day 1), and AUC(0-tau) and Cmax for MAD (day 1 and day 7) to assess dose proportionality using the following power model: loge (AUC or Cmax) = µ + βx loge (dose). The estimate obtained for β is a measure of dose proportionality. The estimate of β together with its 90% confidence interval (CI) (βl, βu) was used to quantify the degree of non-proportionality. In MAD, formal statistical analysis was performed on the PK parameters AUC(0-tau) and Cmax to assess dose accumulation. Log-transformed AUC(0-tau) and Cmax was subjected to a mixed-effects model with treatment (dose level), day (day 1 or 7) and treatment-by-day interaction as fixed effects and subject as a random effect. The adjusted means obtained from the model, including differences for each comparison of interest and the associated 90% CIs, was back-transformed on the log scale to obtain adjusted geometric means, adjusted geometric mean ratios (GMRs) and 90% CIs of the ratio. The GMRs and 90% CIs were provided for each treatment and overall, i.e., day 7/day 1. […]

Data set [2] can be described thus: Blood levels of anle138b after chronic dosing (14 days) in food pellets. The conditions noted are these: mouse, oral, doses of ≥11·, read-out: AUC0-24 exposure. The format is in vivo. More on the design: dose or concentration left out as unconfirmed. On the procedure:
Based on the analysis of blood levels of anle138b after chronic dosing (14 days) using the same formulation (anle138b in food pellets), doses of ≥11·1 mg/kg/day correspond to an AUC0-24 exposure of ≥ 300 ng*h/ml.

[3] abbreviates: human, plasma, fed (high-fat breakfast).

Take `Brc1cccc(-c2cc(-c3ccc4c(c3)OCO4)n[nH]2)c1` [anle138b, 3-(1,3-benzodioxol-5-yl)-5-(3-bromophenyl)-1H-pyrazole]: the “Time point of last quantifiable data (range of subjects)” value in data set [1] (FES 150 mg) lay within 24 to 48 h. Besides, the “Effect of food on Cmax” value in data set [1] (FES 150 mg, fed vs fasted) is given as “decreased by about half”. For the same compound, the “Food effect on AUC” value in data set [1] (FES 150 mg, fed vs fasted) was “clinically insignificant”. Besides, in data set [1] (human, plasma, oral, FES 150 mg, 90% CI: 61%, 88%, read-out: Dose bioavailable in the fed state compared to the fasted state), the bioavailability is approximately 74%. The Cmax is 442 ng/mL in data set [1] (human, plasma, fasted) and 196 ng/mL in data set [1] (setting [3]). The AUC(0-t) in data set [1] (human, plasma, fasted) was 896 ng·h/mL; in data set [1] (setting [3]), 641 ng·h/mL; in data set [2], not below 300 ng·h/mL.
